According to patent US20190374627A1, “TARGET PEPTIDES FOR CANCER THERAPY AND DIAGNOSTICS” (priority 2016, published 2019):
Square brackets hold non-standard residues; d marks the D form. Ends that are not written are not given here. pS = N[C@@H](COP(=O)(O)O)C(=O)O

Key:
CD8^+ T cells (PBMCs) = assay: Intracellular cytokine staining (ICS) of PBMCs after 7 days of stimulation with MHC-I-pP (healthy donors, HH patients); assay type: cell-based, human; settings: for Reactive CD8^+ T cell population, HH2: HH patient HH2; for Reactive CD8^+ T cell population, HH3: HH patient HH3; for Reactive CD8^+ T cell population, HH6: HH patient HH6; for Reactive CD8^+ T cell population, HH8: HH patient HH8; for Reactive CD8^+ T cell population, HH11: HH patient HH11; for Reactive CD8^+ T cell population, HD1: Healthy donor HD1; for Reactive CD8^+ T cell population, HD4: Healthy donor HD4; for Reactive CD8^+ T cell population, HD5: Healthy donor HD5
In short: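 PBMCs or liver lymphocytes from HLA-A*0201-positive healthy donors and hereditary hemochromatosis patients were stimulated for 7 days with HLA-A*0201-restricted phosphopeptides and no added cytokines. After exclusion of doublets and dead cells with a fixable viability dye, CD3^+CD8^+ cells were analysed by intracellular staining for IFN-γ and TNF-α, plus CD107a where needed.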

[1] = test system: expanded TIL / IHL cultures; assay: ICS for MHC-I-pP reactivity of liver-derived lymphocyte cultures after unspecific rapid expansion protocol (REP); assay type: cell-based, human
[2] = test system: expanded lymphocyte cultures from deceased donor livers, cirrhotic livers and HCC; assay: ICS for MHC-I-pP reactivity of liver-derived lymphocyte cultures after phosphopeptide-specific expansion; assay type: cell-based, human; settings: for ppCTL response, Deceased Donor Liver Do 2 / ppCTL response, Deceased Donor Liver Do 3 / ppCTL response, Deceased Donor Liver Do 4 / ppCTL response, Deceased Donor Liver Do 6 / ppCTL response, End-stage Liver Cirrhosis IHL 11 / ppCTL response, End-stage Liver Cirrhosis IHL 12 / ppCTL response, End-stage Liver Cirrhosis IHL 13 / ppCTL response, End-stage Liver Cirrhosis IHL 15 / ppCTL response, HCC Distal HCC 1 / ppCTL response, HCC Tumor HCC 1 / ppCTL response, HCC Distal HCC 4 / ppCTL response, HCC Distal HCC 9 / ppCTL response, HCC Tumor HCC 9 / ppCTL response, HCC Distal HCC 12: pP-specifically expanded culture; for ppCTL response, HCC Distal HCC 1: HCC 1 Distal; for ppCTL response, HCC Tumor HCC 1: HCC 1 Tumor; for ppCTL response, HCC Distal HCC 4: HCC 4 Distal; for ppCTL response, HCC Distal HCC 9: HCC 9 Distal; for ppCTL response, HCC Tumor HCC 9: HCC 9 Tumor; for ppCTL response, HCC Distal HCC 12: HCC 12 Distal
[3] = test system: unexpanded lymphocyte cultures (CD8^+ T cells); assay: ICS for MHC-I-pP reactivity of lymphocyte cultures without expansion (Table 23, No Expansion)

Substance	Reactive CD8^+ T cell population, HH2 (CD8^+ T cells (PBMCs))	Reactive CD8^+ T cell population, HH3 (CD8^+ T cells (PBMCs))	Reactive CD8^+ T cell population, HH6 (CD8^+ T cells (PBMCs))	Reactive CD8^+ T cell population, HH8 (CD8^+ T cells (PBMCs))	Reactive CD8^+ T cell population, HH11 (CD8^+ T cells (PBMCs))	Reactive CD8^+ T cell population, HD1 (CD8^+ T cells (PBMCs))	Reactive CD8^+ T cell population, HD4 (CD8^+ T cells (PBMCs))	Reactive CD8^+ T cell population, HD5 (CD8^+ T cells (PBMCs))	Reactive CD8^+ T cells, Non-specific Expansion, Do2 [1]	Reactive CD8^+ T cells, Non-specific Expansion, Do4 [1]	Reactive CD8^+ T cells, Non-specific Expansion, HH6 [1]	Reactive CD8^+ T cells, pP-specific Expansion, Do2 [2]	Reactive CD8^+ T cells, pP-specific Expansion, Do4 [2]	Reactive CD8^+ T cells, pP-specific Expansion, HH6 [2]	ppCTL response, Deceased Donor Liver Do 2 [2]	ppCTL response, Deceased Donor Liver Do 3 [2]	ppCTL response, Deceased Donor Liver Do 4 [2]	ppCTL response, Deceased Donor Liver Do 6 [2]	ppCTL response, End-stage Liver Cirrhosis IHL 11 [2]	ppCTL response, End-stage Liver Cirrhosis IHL 12 [2]	further results
RLSsPLHFV: FAM134A phosphopeptide, HLA-A*0201 (RLS[pS]PLHFV; listed as Homo sapiens)	1 (0.25-2.5% reactive CD8^-+ T cells)	0 (<0.25% reactive CD8^-+ T cells)	0 (<0.25% reactive CD8^-+ T cells)	0 (<0.25% reactive CD8^-+ T cells)	0 (<0.25% reactive CD8^-+ T cells)	0 (<0.25% reactive CD8^-+ T cells)	0 (<0.25% reactive CD8^-+ T cells)	0 (<0.25% reactive CD8^-+ T cells)	0 (<0.25% reactive CD8^-+ T cells)	0 (<0.25% reactive CD8^-+ T cells)	0 (<0.25% reactive CD8^-+ T cells)	0 (<0.25% reactive CD8^-+ T cells)	0 (<0.25% reactive CD8^-+ T cells)	0 (<0.25% reactive CD8^-+ T cells)	0 (<0.25% reactive CD8-+ T cells)	0 (<0.25% reactive CD8-+ T cells)	0 (<0.25% reactive CD8-+ T cells)	0 (<0.25% reactive CD8-+ T cells)	0 (<0.25% reactive CD8-+ T cells)	0 (<0.25% reactive CD8-+ T cells)	ppCTL response, End-stage Liver Cirrhosis IHL 13 [2]: 0 (<0.25% reactive CD8-+ T cells); ppCTL response, End-stage Liver Cirrhosis IHL 15 [2]: 0 (<0.25% reactive CD8-+ T cells); ppCTL response, HCC Distal HCC 1 [2]: 0 (<0.25% reactive CD8-+ T cells); ppCTL response, HCC Tumor HCC 1 [2]: 0 (<0.25% reactive CD8-+ T cells); ppCTL response, HCC Distal HCC 4 [2]: 0 (<0.25% reactive CD8-+ T cells); ppCTL response, HCC Distal HCC 9 [2]: 0 (<0.25% reactive CD8-+ T cells); ppCTL response, HCC Tumor HCC 9 [2]: 0 (<0.25% reactive CD8-+ T cells); ppCTL response, HCC Distal HCC 12 [2]: 0 (<0.25% reactive CD8-+ T cells); Reactive CD8^+ T cells, No Expansion, HH6 [3]: 0 (<0.25% reactive CD8^-+ T cells)
RTFsPTYGL: SYNM phosphopeptide, HLA-A*0201 (RTF[pS]PTYGL; listed as Homo sapiens)	0 (<0.25% reactive CD8^-+ T cells)	0 (<0.25% reactive CD8^-+ T cells)	0 (<0.25% reactive CD8^-+ T cells)	0 (<0.25% reactive CD8^-+ T cells)	0 (<0.25% reactive CD8^-+ T cells)	0 (<0.25% reactive CD8^-+ T cells)	0 (<0.25% reactive CD8^-+ T cells)	0 (<0.25% reactive CD8^-+ T cells)	0 (<0.25% reactive CD8^-+ T cells)	0 (<0.25% reactive CD8^-+ T cells)	0 (<0.25% reactive CD8^-+ T cells)	0 (<0.25% reactive CD8^-+ T cells)	0 (<0.25% reactive CD8^-+ T cells)	3 (5-7.5% reactive CD8^-+ T cells)	0 (<0.25% reactive CD8-+ T cells)	0 (<0.25% reactive CD8-+ T cells)	0 (<0.25% reactive CD8-+ T cells)	0 (<0.25% reactive CD8-+ T cells)	0 (<0.25% reactive CD8-+ T cells)	0 (<0.25% reactive CD8-+ T cells)	ppCTL response, End-stage Liver Cirrhosis IHL 13 [2]: 0 (<0.25% reactive CD8-+ T cells); ppCTL response, End-stage Liver Cirrhosis IHL 15 [2]: 1 (0.25-2.5% reactive CD8-+ T cells); ppCTL response, HCC Distal HCC 1 [2]: 0 (<0.25% reactive CD8-+ T cells); ppCTL response, HCC Tumor HCC 1 [2]: 0 (<0.25% reactive CD8-+ T cells); ppCTL response, HCC Distal HCC 4 [2]: 0 (<0.25% reactive CD8-+ T cells); ppCTL response, HCC Distal HCC 9 [2]: 0 (<0.25% reactive CD8-+ T cells); ppCTL response, HCC Tumor HCC 9 [2]: 0 (<0.25% reactive CD8-+ T cells); ppCTL response, HCC Distal HCC 12 [2]: 0 (<0.25% reactive CD8-+ T cells); Reactive CD8^+ T cells, No Expansion, HH6 [3]: 1 (0.25-2.5% reactive CD8^-+ T cells)
RTHsLLLLL (RTH[pS]LLLLL; listed as Homo sapiens)	0 (<0.25% reactive CD8^-+ T cells)	0 (<0.25% reactive CD8^-+ T cells)	0 (<0.25% reactive CD8^-+ T cells)	0 (<0.25% reactive CD8^-+ T cells)	0 (<0.25% reactive CD8^-+ T cells)	0 (<0.25% reactive CD8^-+ T cells)	0 (<0.25% reactive CD8^-+ T cells)	0 (<0.25% reactive CD8^-+ T cells)	0 (<0.25% reactive CD8^-+ T cells)	0 (<0.25% reactive CD8^-+ T cells)	1 (0.25-2.5% reactive CD8^-+ T cells)	0 (<0.25% reactive CD8^-+ T cells)	0 (<0.25% reactive CD8^-+ T cells)	0 (<0.25% reactive CD8^-+ T cells)	0 (<0.25% reactive CD8-+ T cells)	0 (<0.25% reactive CD8-+ T cells)	0 (<0.25% reactive CD8-+ T cells)	0 (<0.25% reactive CD8-+ T cells)	0 (<0.25% reactive CD8-+ T cells)	0 (<0.25% reactive CD8-+ T cells)	Reactive CD8^+ T cell population, HH10 (CD8^+ T cells (PBMCs); HH patient HH10): 0 (<0.25% reactive CD8^-+ T cells); Reactive CD8^+ T cell population, HD2 (CD8^+ T cells (PBMCs); Healthy donor HD2): 0 (<0.25% reactive CD8^-+ T cells); Reactive CD8^+ T cell population, HD3 (CD8^+ T cells (PBMCs); Healthy donor HD3): 0 (<0.25% reactive CD8^-+ T cells); ppCTL response, End-stage Liver Cirrhosis IHL 13 [2]: 0 (<0.25% reactive CD8-+ T cells); ppCTL response, End-stage Liver Cirrhosis IHL 15 [2]: 0 (<0.25% reactive CD8-+ T cells); ppCTL response, HCC Distal HCC 1 [2]: 0 (<0.25% reactive CD8-+ T cells); ppCTL response, HCC Tumor HCC 1 [2]: 0 (<0.25% reactive CD8-+ T cells); ppCTL response, HCC Distal HCC 4 [2]: 0 (<0.25% reactive CD8-+ T cells); ppCTL response, HCC Distal HCC 9 [2]: 0 (<0.25% reactive CD8-+ T cells); ppCTL response, HCC Tumor HCC 9 [2]: 0 (<0.25% reactive CD8-+ T cells); ppCTL response, HCC Distal HCC 12 [2]: 0 (<0.25% reactive CD8-+ T cells); Reactive CD8^+ T cells, No Expansion, Do4 ([3]; Do4): 2 (2.5-5.0% reactive CD8^-+ T cells); Reactive CD8^+ T cells, No Expansion, HH6 [3]: 1 (0.25-2.5% reactive CD8^-+ T cells)
